ChEMBL document CHEMBL3992559, “Human carbonic anhydrase inhibitory profile of mono- and bis-sulfonamides synthesized via a direct sulfochlorination of 3- and 4-(hetero)arylisoxazol-5-amine scaffolds” (Bioorg Med Chem, 2017)

How the values were obtained:
Carbonic anhydrase 1 = Carbonic anhydrase 1 (Homo sapiens, UniProt P00915); assay: Inhibition of recombinant human carbonic anhydrase-1 assessed as reduction in enzyme-catalyzed hydration activity using CO2 as substrate preincubated for 15 mins followed substrate addition measured after 10 to 100 sec by phenol red dye based stopped flow assay
Sequence of Carbonic anhydrase 1 (P00915 whole entry): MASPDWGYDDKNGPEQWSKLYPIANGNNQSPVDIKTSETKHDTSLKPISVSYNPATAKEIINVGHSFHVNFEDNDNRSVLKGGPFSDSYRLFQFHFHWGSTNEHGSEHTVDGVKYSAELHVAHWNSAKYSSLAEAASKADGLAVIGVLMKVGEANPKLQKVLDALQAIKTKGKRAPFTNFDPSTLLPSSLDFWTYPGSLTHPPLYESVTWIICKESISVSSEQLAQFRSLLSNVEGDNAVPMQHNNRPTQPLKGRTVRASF

Carbonic anhydrase 2 = Carbonic anhydrase 2 (Homo sapiens, UniProt P00918); assay: Inhibition of recombinant human carbonic anhydrase-2 assessed as reduction in enzyme-catalyzed hydration activity using CO2 as substrate preincubated for 15 mins followed substrate addition measured after 10 to 100 sec by phenol red dye based stopped flow assay
Carbonic anhydrase 4 = Carbonic anhydrase 4 (Homo sapiens, UniProt P22748); assay: Inhibition of recombinant human carbonic anhydrase-4 assessed as reduction in enzyme-catalyzed hydration activity using CO2 as substrate preincubated for 15 mins followed substrate addition measured after 10 to 100 sec by phenol red dye based stopped flow assay
Sequence of Carbonic anhydrase 4 (P22748 whole entry): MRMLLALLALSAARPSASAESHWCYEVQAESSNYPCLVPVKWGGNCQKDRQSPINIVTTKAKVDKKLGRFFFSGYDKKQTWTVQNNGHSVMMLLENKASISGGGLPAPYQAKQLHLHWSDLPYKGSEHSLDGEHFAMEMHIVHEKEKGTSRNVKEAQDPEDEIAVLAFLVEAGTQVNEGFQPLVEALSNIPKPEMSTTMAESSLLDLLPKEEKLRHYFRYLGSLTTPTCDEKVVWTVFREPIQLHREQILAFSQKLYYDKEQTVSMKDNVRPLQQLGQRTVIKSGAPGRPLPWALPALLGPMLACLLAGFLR

Carbonic anhydrase 7 = Carbonic anhydrase 7 (Homo sapiens, UniProt P43166); assay: Inhibition of recombinant human carbonic anhydrase-7 assessed as reduction in enzyme-catalyzed hydration activity using CO2 as substrate preincubated for 15 mins followed substrate addition measured after 10 to 100 sec by phenol red dye based stopped flow assay
Sequence of Carbonic anhydrase 7 (P43166 whole entry): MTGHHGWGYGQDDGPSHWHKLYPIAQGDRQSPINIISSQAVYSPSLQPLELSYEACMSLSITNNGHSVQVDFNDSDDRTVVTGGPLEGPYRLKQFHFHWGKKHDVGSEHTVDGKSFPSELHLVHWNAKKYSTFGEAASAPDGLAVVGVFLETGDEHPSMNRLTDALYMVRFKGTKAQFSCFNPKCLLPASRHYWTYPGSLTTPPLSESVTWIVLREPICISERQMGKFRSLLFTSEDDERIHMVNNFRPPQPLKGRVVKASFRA

Ki (Carbonic anhydrase 1) | Ki (Carbonic anhydrase 2) | Ki (Carbonic anhydrase 4) | Ki (Carbonic anhydrase 7) | SMILES
> 10 µM | > 10 µM | > 10 µM | > 10 µM | COc1ccc(-c2c(C)noc2NC(C)=O)cc1S(N)(=O)=O
> 10 µM | – | > 10 µM | > 10 µM | COc1ccc(S(N)(=O)=O)c(-c2noc(N)c2S(N)(=O)=O)c1
– | – | > 10 µM | – | CC(=O)Nc1onc(C)c1-c1ccc(S(N)(=O)=O)c(C)c1
> 10 µM | > 10 µM | > 10 µM | > 10 µM | COc1ccc(-c2cc(NC(C)=O)on2)cc1S(N)(=O)=O
> 10 µM | – | > 10 µM | > 10 µM | CC(=O)Nc1cc(-c2cc(S(N)(=O)=O)c(C)s2)no1
> 10 µM | – | > 10 µM | – | CC(=O)Nc1cc(-c2ccc(C)c(S(N)(=O)=O)c2)no1
> 10 µM | – | – | > 10 µM | COc1ccc(-c2noc(N)c2S(N)(=O)=O)cc1S(N)(=O)=O
> 10 µM | > 10 µM | > 10 µM | > 10 µM | COc1ccc(S(N)(=O)=O)c(-c2c(C)noc2NC(C)=O)c1
> 10 µM | > 10 µM | > 10 µM | > 10 µM | COc1ccc(S(N)(=O)=O)c(-c2cc(NC(C)=O)on2)c1
